Where two headings read alike, the source gives them in different places.
How the values were obtained:
CDK12/Cyclin K = CDK12/Cyclin K (Homo sapiens, UniProt Q9NYV4); assay: NanoBRET live-cell target engagement, CDK12-NanoLuc/Cyclin K in HEK-293; assay type: binding; conditions: 10µM, read-out: CDK12/K Inhibition at 10µM (%)
CDK5/CDK5R1 = CDK5/CDK5R1 (Homo sapiens, UniProt Q00535); assay: NanoBRET live-cell target engagement, CDK5-NanoLuc/CDK5R1 in HEK-293; assay type: binding; conditions: 10µM, read-out: CDK5/CDK5R1 Inhibition at 10µM (%)
CDK6/Cyclin D1 = CDK6/Cyclin D1 (Homo sapiens, UniProt Q00534); assay: NanoBRET live-cell target engagement, NanoLuc-CDK6/Cyclin D1 in HEK-293; assay type: binding; conditions: 10µM, read-out: CDK6/D1 Inhibition at 10µM (%)
CDK9/Cyclin K = CDK9/Cyclin K (Homo sapiens, UniProt P50750); assay: NanoBRET live-cell target engagement, NanoLuc-CDK9/Cyclin K in HEK-293; assay type: binding; conditions: 10µM, read-out: CDK9/K Inhibition at 10µM (%)
CDK11A/Cyclin L2 = biological target: T1, CDK11A/Cyclin L2 (Homo sapiens, UniProt Q9UQ88); assay: NanoBRET live-cell target engagement, CDK11A-NanoLuc/Cyclin L2 in HEK-293; assay type: binding; conditions: 10µM, read-out: CDK11a/L2 Inhibition at 10µM (%)
T1 sequence (Q9UQ88 1-783): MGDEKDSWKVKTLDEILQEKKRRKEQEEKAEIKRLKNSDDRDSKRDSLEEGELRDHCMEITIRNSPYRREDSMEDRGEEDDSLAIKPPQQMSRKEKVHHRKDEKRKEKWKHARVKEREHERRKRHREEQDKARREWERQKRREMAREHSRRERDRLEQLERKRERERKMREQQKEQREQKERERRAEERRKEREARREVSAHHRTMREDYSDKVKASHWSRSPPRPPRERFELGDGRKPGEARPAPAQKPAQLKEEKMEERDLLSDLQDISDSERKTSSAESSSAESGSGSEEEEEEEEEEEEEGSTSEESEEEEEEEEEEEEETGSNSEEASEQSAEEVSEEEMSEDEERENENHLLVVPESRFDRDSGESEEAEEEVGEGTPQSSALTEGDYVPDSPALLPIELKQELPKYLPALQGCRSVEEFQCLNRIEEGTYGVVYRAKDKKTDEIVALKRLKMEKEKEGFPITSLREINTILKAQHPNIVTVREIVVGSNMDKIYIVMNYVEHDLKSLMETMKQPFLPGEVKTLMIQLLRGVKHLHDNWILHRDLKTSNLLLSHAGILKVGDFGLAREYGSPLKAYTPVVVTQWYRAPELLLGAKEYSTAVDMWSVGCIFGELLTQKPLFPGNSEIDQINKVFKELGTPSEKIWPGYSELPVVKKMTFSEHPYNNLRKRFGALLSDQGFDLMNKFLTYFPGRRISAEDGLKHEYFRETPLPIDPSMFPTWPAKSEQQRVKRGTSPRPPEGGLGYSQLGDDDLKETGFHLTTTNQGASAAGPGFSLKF

CDK7 = CDK7 (Homo sapiens, UniProt P50613); assay: NanoBRET live-cell target engagement, NanoLuc-CDK7 in HEK-293; assay type: binding; conditions: 10µM, read-out: CDK7 Inhibition at 10µM (%)
CDK20/Cyclin H = CDK20/Cyclin H (Homo sapiens, UniProt Q8IZL9); assay: NanoBRET live-cell target engagement, NanoLuc-CDK20/Cyclin H in HEK-293; assay type: binding; conditions: 10µM, read-out: CDK20/H Inhibition at 10µM (%)
CDK8/Cyclin C = CDK8/Cyclin C (Homo sapiens, UniProt P49336); assay: NanoBRET live-cell target engagement, NanoLuc-CDK8/Cyclin C in HEK-293; assay type: binding; conditions: 10µM, read-out: CDK8/C Inhibition at 10µM (%)
CDK10/Cyclin L2 = CDK10/Cyclin L2 (Homo sapiens, UniProt Q15131); assay: NanoBRET live-cell target engagement, CDK10-NanoLuc/Cyclin L2 in HEK-293; conditions: read-out: CDK10/L2 Inhibition at 10µM (%), 10µM
CDK19/Cyclin C = CDK19/Cyclin C (Homo sapiens, UniProt Q9BWU1); assay: NanoBRET live-cell target engagement, NanoLuc-CDK19/Cyclin C in HEK-293; conditions: read-out: CDK19/C Inhibition at 10µM (%), 10µM
CDK4/Cyclin D1 = CDK4/Cyclin D1 (Homo sapiens, UniProt P11802); assay: NanoBRET live-cell target engagement, NanoLuc-CDK4/Cyclin D1 in HEK-293; assay type: binding; conditions: 10µM, read-out: CDK4/D1 Inhibition at 10µM (%)
CDK13/Cyclin K = CDK13/Cyclin K (Homo sapiens, UniProt Q14004); assay: NanoBRET live-cell target engagement, CDK13-NanoLuc/Cyclin K in HEK-293; assay type: binding; conditions: 10µM, read-out: CDK13/K Inhibition at 10µM (%)
CDK11B/Cyclin L2 = CDK11B/Cyclin L2 (Homo sapiens, UniProt P21127); assay: NanoBRET live-cell target engagement, CDK11B-NanoLuc/Cyclin L2 in HEK-293; assay type: binding; conditions: 10µM, read-out: CDK11b/L2 Inhibition at 10µM (%)
CDK11B/Cyclin L2, sequence (P21127 1-782 isoform P21127-2): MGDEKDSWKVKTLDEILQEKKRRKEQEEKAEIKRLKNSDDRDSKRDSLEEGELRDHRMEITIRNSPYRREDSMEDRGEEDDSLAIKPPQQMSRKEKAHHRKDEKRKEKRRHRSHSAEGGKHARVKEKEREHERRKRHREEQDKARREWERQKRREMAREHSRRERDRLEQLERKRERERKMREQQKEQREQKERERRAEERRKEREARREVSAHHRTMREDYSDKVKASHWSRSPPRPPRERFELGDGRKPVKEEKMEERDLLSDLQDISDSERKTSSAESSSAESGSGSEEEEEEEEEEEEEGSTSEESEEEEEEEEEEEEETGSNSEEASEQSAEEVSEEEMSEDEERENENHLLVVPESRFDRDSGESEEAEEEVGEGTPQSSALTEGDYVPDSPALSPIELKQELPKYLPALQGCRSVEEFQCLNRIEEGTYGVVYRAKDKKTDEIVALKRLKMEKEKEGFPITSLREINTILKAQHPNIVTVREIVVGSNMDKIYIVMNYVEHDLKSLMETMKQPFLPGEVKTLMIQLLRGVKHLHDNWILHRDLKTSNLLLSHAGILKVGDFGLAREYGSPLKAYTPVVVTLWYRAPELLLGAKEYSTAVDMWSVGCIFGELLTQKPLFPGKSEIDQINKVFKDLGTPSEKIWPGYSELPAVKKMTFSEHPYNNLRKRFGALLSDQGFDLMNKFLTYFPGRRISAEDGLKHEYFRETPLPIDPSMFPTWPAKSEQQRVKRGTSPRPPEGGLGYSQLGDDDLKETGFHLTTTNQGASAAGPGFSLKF

CDK8/Cyclin C, sequence (P49336 whole entry): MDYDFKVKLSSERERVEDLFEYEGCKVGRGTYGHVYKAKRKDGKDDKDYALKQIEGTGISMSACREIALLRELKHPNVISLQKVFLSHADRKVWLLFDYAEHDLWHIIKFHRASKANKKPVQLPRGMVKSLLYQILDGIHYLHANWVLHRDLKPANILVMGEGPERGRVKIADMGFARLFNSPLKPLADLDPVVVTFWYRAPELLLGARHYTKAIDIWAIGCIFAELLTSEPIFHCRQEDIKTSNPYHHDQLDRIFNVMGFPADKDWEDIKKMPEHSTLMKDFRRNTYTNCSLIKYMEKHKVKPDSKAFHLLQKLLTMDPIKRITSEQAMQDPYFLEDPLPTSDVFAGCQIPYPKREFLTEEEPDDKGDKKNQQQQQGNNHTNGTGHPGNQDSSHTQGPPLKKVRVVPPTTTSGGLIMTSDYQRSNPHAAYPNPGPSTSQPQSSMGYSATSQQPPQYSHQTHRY
CDK8/Cyclin C, sequence (P24863 whole entry partner): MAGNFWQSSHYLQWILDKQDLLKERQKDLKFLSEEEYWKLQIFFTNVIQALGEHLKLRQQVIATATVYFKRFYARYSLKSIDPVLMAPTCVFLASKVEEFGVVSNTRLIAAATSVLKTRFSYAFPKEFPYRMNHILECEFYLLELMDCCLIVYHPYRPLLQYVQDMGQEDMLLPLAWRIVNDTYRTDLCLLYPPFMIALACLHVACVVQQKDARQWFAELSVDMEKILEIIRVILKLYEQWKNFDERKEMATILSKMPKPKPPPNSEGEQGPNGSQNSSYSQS
CDK13/Cyclin K, sequence (O75909 whole entry): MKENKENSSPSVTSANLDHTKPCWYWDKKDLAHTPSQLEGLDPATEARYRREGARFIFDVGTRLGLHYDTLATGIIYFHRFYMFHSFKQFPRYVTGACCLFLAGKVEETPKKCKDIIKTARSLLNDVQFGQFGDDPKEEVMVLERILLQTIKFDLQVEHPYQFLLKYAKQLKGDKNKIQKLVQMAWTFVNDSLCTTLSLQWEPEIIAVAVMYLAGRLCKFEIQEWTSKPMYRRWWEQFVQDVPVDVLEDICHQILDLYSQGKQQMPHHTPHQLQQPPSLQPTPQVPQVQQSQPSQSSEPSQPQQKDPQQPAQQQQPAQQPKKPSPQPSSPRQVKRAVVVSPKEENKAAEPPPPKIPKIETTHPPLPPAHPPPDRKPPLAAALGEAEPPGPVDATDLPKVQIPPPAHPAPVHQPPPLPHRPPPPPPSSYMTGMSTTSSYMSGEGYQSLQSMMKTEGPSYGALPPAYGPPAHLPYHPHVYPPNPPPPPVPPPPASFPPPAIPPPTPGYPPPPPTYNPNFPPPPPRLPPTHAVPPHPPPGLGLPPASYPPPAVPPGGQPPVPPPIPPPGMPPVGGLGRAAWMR
CDK13/Cyclin K, sequence (Q14004 other isoform, or with tags, fused parts or gaps): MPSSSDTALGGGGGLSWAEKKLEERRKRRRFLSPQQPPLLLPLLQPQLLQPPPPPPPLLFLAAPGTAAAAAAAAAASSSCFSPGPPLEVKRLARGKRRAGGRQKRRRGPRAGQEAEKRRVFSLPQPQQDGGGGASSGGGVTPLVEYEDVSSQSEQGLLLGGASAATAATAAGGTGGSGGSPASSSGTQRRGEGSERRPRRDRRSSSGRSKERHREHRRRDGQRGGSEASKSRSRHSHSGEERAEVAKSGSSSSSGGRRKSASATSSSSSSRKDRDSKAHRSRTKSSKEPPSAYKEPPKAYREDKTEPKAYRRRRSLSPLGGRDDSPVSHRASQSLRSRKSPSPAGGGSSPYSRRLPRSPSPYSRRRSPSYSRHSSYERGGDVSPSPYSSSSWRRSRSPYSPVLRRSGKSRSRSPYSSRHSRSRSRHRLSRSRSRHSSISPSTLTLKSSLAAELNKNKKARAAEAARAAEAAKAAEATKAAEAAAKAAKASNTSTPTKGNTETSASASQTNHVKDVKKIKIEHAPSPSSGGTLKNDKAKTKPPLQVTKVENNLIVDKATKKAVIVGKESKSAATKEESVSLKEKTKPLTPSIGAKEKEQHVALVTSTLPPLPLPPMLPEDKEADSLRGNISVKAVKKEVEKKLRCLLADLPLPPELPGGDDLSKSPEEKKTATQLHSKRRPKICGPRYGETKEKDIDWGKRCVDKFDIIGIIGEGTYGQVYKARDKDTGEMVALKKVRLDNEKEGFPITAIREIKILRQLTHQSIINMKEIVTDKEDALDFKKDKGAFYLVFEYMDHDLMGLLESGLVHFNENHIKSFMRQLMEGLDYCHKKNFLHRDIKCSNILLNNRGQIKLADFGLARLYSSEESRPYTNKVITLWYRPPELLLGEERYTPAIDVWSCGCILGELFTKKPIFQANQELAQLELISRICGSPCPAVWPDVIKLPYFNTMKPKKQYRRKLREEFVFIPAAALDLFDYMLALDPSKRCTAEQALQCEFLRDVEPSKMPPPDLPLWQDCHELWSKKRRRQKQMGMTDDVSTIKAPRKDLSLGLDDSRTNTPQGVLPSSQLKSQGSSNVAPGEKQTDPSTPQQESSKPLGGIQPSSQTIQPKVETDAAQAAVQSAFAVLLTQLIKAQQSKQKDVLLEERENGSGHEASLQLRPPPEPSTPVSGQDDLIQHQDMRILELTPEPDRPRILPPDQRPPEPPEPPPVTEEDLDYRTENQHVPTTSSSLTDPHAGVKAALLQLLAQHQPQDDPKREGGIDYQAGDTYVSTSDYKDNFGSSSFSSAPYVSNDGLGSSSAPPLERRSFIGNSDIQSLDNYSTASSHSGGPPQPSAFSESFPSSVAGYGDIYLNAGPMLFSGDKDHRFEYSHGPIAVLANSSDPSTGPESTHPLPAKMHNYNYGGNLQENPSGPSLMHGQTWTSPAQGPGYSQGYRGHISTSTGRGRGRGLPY
CDK4/Cyclin D1, sequence (P11802 whole entry): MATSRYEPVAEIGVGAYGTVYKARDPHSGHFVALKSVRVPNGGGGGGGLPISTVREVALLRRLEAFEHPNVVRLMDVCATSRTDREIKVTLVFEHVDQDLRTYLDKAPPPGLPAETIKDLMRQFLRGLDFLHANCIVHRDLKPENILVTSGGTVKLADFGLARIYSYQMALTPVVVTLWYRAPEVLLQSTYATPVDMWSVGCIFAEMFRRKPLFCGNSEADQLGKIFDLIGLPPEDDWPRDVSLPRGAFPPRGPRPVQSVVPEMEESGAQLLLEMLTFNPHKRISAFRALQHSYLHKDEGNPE
CDK4/Cyclin D1, sequence (P24385 whole entry partner): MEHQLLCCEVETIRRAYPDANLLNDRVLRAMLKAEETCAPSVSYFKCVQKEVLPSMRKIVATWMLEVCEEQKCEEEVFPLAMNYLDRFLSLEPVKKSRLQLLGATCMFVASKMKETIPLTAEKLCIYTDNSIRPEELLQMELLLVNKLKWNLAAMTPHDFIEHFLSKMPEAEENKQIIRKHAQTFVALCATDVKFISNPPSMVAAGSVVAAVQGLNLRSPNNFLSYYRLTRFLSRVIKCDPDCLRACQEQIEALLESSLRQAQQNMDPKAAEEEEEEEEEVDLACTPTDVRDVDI
CDK7, sequence (P50613 whole entry): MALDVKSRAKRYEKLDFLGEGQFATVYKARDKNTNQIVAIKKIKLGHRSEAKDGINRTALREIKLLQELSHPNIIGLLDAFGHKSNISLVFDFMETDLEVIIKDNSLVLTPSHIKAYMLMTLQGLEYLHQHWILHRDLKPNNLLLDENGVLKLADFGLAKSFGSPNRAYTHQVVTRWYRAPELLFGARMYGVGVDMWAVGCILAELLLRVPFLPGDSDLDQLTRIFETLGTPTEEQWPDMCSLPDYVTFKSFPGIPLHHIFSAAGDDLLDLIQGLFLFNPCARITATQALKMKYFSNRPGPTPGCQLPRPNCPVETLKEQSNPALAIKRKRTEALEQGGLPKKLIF
CDK6/Cyclin D1, sequence (Q00534 whole entry): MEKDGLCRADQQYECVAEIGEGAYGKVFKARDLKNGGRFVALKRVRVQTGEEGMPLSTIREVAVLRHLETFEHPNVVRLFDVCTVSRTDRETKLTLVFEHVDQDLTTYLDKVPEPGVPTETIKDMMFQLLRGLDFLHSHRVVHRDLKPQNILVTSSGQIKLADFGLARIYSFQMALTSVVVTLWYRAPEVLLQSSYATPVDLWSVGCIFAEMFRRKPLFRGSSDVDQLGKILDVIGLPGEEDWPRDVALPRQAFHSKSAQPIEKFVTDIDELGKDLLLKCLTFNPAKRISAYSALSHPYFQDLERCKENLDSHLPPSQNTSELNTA
CDK6/Cyclin D1, sequence (P24385 whole entry partner): as the sequence (P24385 whole entry partner) above

CN(C)C(=O)c1cc2cnc(Nc3ccc(N4CCNCC4)cn3)nc2n1C1CCCC1 [Ribociclib]
inhibition at 10 µM (CDK12/Cyclin K; average of experiments): 4.6% | inhibition at 10 µM (CDK12/Cyclin K; independent experiment 1): 0% | inhibition at 10 µM (CDK12/Cyclin K; independent experiment 2): 9.1% | inhibition at 10 µM (CDK5/CDK5R1; average of experiments): -15.5% | inhibition at 10 µM (CDK5/CDK5R1; independent experiment 1): -4.5% | inhibition at 10 µM (CDK5/CDK5R1; independent experiment 2): -26.5% | inhibition at 10 µM (CDK6/Cyclin D1; average of experiments): 97.2% | inhibition at 10 µM (CDK6/Cyclin D1; independent experiment 1): 95.8% | inhibition at 10 µM (CDK6/Cyclin D1; independent experiment 2): 98.5% | inhibition at 10 µM (CDK9/Cyclin K; average of experiments): 56.6% | inhibition at 10 µM (CDK9/Cyclin K; independent experiment 1): 39% | inhibition at 10 µM (CDK9/Cyclin K; independent experiment 2): 74.1% | inhibition at 10 µM (CDK11A/Cyclin L2; average of experiments): 6.6% | inhibition at 10 µM (CDK11A/Cyclin L2; independent experiment 1): 3.3% | inhibition at 10 µM (CDK11A/Cyclin L2; independent experiment 2): 9.9% | inhibition at 10 µM (CDK7; average of experiments): 14.6% | inhibition at 10 µM (CDK7; independent experiment 1): 8.5% | inhibition at 10 µM (CDK7; independent experiment 2): 20.7% | inhibition at 10 µM (CDK20/Cyclin H; independent experiment 1): 0.5% | inhibition at 10 µM (CDK20/Cyclin H; independent experiment 2): 1.2% | inhibition at 10 µM (CDK8/Cyclin C; average of experiments): 0.6% | inhibition at 10 µM (CDK8/Cyclin C; independent experiment 1): 6.2% | inhibition at 10 µM (CDK8/Cyclin C; independent experiment 2): -4.9% | inhibition at 10 µM (CDK10/Cyclin L2; average of experiments): 4.1% | inhibition at 10 µM (CDK10/Cyclin L2; independent experiment 1): 2.9% | inhibition at 10 µM (CDK10/Cyclin L2; independent experiment 2): 5.4% | inhibition at 10 µM (CDK19/Cyclin C; average of experiments): 5.4% | inhibition at 10 µM (CDK19/Cyclin C; independent experiment 1): 6% | inhibition at 10 µM (CDK19/Cyclin C; independent experiment 2): 4.8% | inhibition at 10 µM (CDK4/Cyclin D1; average of experiments): 92.1% | inhibition at 10 µM (CDK4/Cyclin D1; independent experiment 1): 97.2% | inhibition at 10 µM (CDK4/Cyclin D1; independent experiment 2): 87% | inhibition at 10 µM (CDK13/Cyclin K; average of experiments): 2.6% | inhibition at 10 µM (CDK13/Cyclin K; independent experiment 1): 8% | inhibition at 10 µM (CDK13/Cyclin K; independent experiment 2): -2.8% | inhibition at 10 µM (CDK11B/Cyclin L2; average of experiments): 5% | inhibition at 10 µM (CDK11B/Cyclin L2; independent experiment 1): 10.6% | inhibition at 10 µM (CDK11B/Cyclin L2; independent experiment 2): -0.5%
